# Measured values: patent publication US20180169021A1, “RANOLAZINE MULTIPLE COMPRESSED TABLETS” (INTERQUIM, S.A., priority 2015, published 2018)
# Read-outs that look alike come from different tables or passages of the source.
# Assays:
# [1] = Dissolution in time of 500 mg ranolazine compressed into tablets, 900 mL aqueous media, paddle 100 rpm (FIG. 1); type: physicochemical; details: 100% ranolazine tablet
# Source text: As shown in the previous table, ranolazine is much more soluble at acidic pH than in neutral or basic pH.
# [2] = cited from earlier work
# [3] = quoted from WO0166093 A2; cited from earlier work
smiles,measurement,setting,value
"COc1ccccc1OCC(O)CN1CCN(CC(=O)Nc2c(C)cccc2C)CC1 (centres unmarked) [Ranolazine, N-(2,6-dimethylphenyl)-2-(4-(2-hydroxy-3-(2-methoxyphenoxy)propyl)piperazin-1-yl)acetamide]",Time until all the ranolazine is dissolved,[1]; pH 1 (0.1 M HCl),less than 30 minutes
same,Ranolazine dissolved,"[1]; pH 6.8, 30 minutes",around 63%
same,Extent of dissolution,"[1]; pH 6.8, 12 hours",not yet fully dissolved
same,Solubility,[2]; Solution pH 4.81,161000 µg/mL
same,USP Solubility Class,[2]; Solution pH 4.81,Freely Soluble
same,Solubility,[2]; Solution pH 4.89,73800 µg/mL
same,USP Solubility Class,[2]; Solution pH 4.89,Soluble
same,Solubility,[2]; Solution pH 4.90,76400 µg/mL
same,USP Solubility Class,[2]; Solution pH 4.90,Soluble
same,Solubility,[2]; Solution pH 5.04,49400 µg/mL
same,USP Solubility Class,[2]; Solution pH 5.04,Soluble
same,Solubility,[2]; Solution pH 5.35,16700 µg/mL
same,USP Solubility Class,[2]; Solution pH 5.35,Sparingly Soluble
same,Solubility,[2]; Solution pH 5.82,5480 µg/mL
same,USP Solubility Class,[2]; Solution pH 5.82,Slightly soluble
same,Solubility,[2]; Solution pH 6.46,1630 µg/mL
same,USP Solubility Class,[2]; Solution pH 6.46,Slightly soluble
same,Solubility,[2]; Solution pH 6.73,830 µg/mL
same,USP Solubility Class,[2]; Solution pH 6.73,Very slightly soluble
same,Solubility,[2]; Solution pH 7.08,390 µg/mL
same,USP Solubility Class,[2]; Solution pH 7.08,Very slightly soluble
same,Solubility,[2]; Solution pH 7.59*,240 µg/mL
same,USP Solubility Class,[2]; Solution pH 7.59*,Very slightly soluble
same,Solubility,[2]; Solution pH 7.79,170 µg/mL
same,USP Solubility Class,[2]; Solution pH 7.79,Very slightly soluble
same,Solubility,[2]; Solution pH 12.66,180 µg/mL
same,USP Solubility Class,[2]; Solution pH 12.66,Very slightly soluble
same,Solubility,"[2]; low pH that occurs in the stomach, quoted from WO0166093 A2",relatively high
same,Plasma half-life,[3],relatively short
